Test results taken from US20240174618A1, “SUBSTITUTED (2-HETEROARYLOXYPHENYL)SULFONATES, SALTS THEREOF AND THEIR USE AS HERBICIDAL AGENTS” (Bayer Aktiengesellschaft, priority 2021, published 2024).

Experiments:
Format in all cases: in vivo
Viola tricolor (VIOTR) [1] = test: E. Herbicidal post-emergence efficacy, VIOTR
In short: (§1)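 Greenhouse post-emergence spray, one-leaf stage (2–3 wk after sowing, sandy loam); WP/EC formulation, aqueous + 0.5% additive, 600 l/ha water; rates 320 g/ha or less. Visual rating ~3 wk later vs untreated; 0% = control-like, 100% = dead.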

Kochia scoparia (KCHSC) = test: A. Herbicidal pre-emergence efficacy, KCHSC
In short: (§2)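 Pre-emergence soil-surface spray in sandy loam pots, WP/EC in water plus 0.5% additive, 600 L/ha. Visual % damage rating after about 3 weeks in greenhouse vs. untreated; 0% = control-like, 100% = dead plants. Rates up to 1280 g/ha.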

[2] = system: Echinochloa crus-galli (ECHCG); test: E. Herbicidal post-emergence efficacy, ECHCG
In short: as §1

Poa annua (POAAN) = test: B. Herbicidal post-emergence efficacy, POAAN
In short: (§3)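 Post-emergence greenhouse test: one-leaf-stage plants, compound (WP/EC, +0.5% additive, 600 L/ha water, ≤1280 g/ha) applied to green parts; % efficacy scored visually vs untreated after ~3 wk; 100% = plants died.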

Setaria viridis (SETVI) = test: B. Herbicidal post-emergence efficacy, SETVI
In short: as §3

Stellaria media (STEME) = test: A. Herbicidal pre-emergence efficacy, STEME
In short: as §2

Veronica persica (VERPE) = test: B. Herbicidal post-emergence efficacy, VERPE
In short: as §3

Viola tricolor (VIOTR) [3] = test: C. Herbicidal pre-emergence efficacy, VIOTR
In short: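 Pre-emergence test: formulated compounds sprayed as aqueous suspension or emulsion with 0.5% additive at 600 l/ha onto soil covering sown seeds, at rates corresponding to 320 g/ha or less. After about 3 weeks in greenhouse, efficacy scored visually as percent versus untreated controls (100% = plants dead).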

[4] = 80 g/ha, scored visually after about 3 weeks vs untreated controls
[5] = pre-emergence, dosage 1280 g/ha

| SMILES | Post-emergence efficacy against VIOTR in % (Viola tricolor (VIOTR) [1]; application rate 80 g/ha) | Post-emergence efficacy against VIOTR in % (Viola tricolor (VIOTR) [1]; application rate 320 g/ha) | Pre-emergence efficacy against KCHSC (Kochia scoparia (KCHSC); [4]) | Pre-emergence efficacy against KCHSC (Kochia scoparia (KCHSC); pre-emergence, dosage 320 g/ha) | Pre-emergence efficacy against KCHSC (Kochia scoparia (KCHSC); [5]) | Post-emergence efficacy against ECHCG in % ([2]; application rate 80 g/ha) | Post-emergence efficacy against ECHCG in % ([2]; application rate 320 g/ha) | Post-emergence efficacy against POAAN (Poa annua (POAAN); 320 g/ha) | Post-emergence efficacy against POAAN (Poa annua (POAAN); 1280 g/ha) | Post-emergence efficacy against SETVI (Setaria viridis (SETVI); 320 g/ha) | Post-emergence efficacy against SETVI (Setaria viridis (SETVI); 1280 g/ha) | Pre-emergence efficacy against STEME (Stellaria media (STEME); dosage 320 g/ha) | Pre-emergence efficacy against STEME (Stellaria media (STEME); dosage 1280 g/ha) | Post-emergence efficacy against VERPE (Veronica persica (VERPE); 80 g/ha) | Post-emergence efficacy against VERPE (Veronica persica (VERPE); 320 g/ha) | Post-emergence efficacy against VERPE (Veronica persica (VERPE); 1280 g/ha) | Pre-emergence efficacy against VIOTR in % (Viola tricolor (VIOTR) [3]; application rate 80 g/ha) | Pre-emergence efficacy against VIOTR in % (Viola tricolor (VIOTR) [3]; application rate 320 g/ha) | Post-emergence efficacy against POAAN (Poa annua (POAAN); 80 g/ha) | Pre-emergence efficacy against STEME (Stellaria media (STEME); dosage 80 g/ha) |
| --- | --- | --- | --- | --- | --- | --- | --- | --- | --- | --- | --- | --- | --- | --- | --- | --- | --- | --- | --- | --- |
| O=S(=O)(CCC(F)(F)F)Oc1c(F)cccc1Oc1ncc(Br)cn1 [Example I-40] | 100% | 100% | 100% | 100% | 100% | 100% | 100% | 90% | 90% | 90% | 90% | 100% | 100% | 90% | 90% | 90% | 100% | 100% |  |  |
| CCCCCS(=O)(=O)Oc1ccccc1Oc1ncc(Cl)cn1 [Example I-24] |  | 80% |  |  | 100% |  | 80% | 90% | 100% |  | 90% | 100% | 100% | 90% | 100% | 100% | 80% | 80% |  |  |
| O=S(=O)(CCCC(F)F)Oc1c(F)cccc1Oc1ncc(Cl)cn1 [Example I-56] | 100% | 100% | 100% | 100% | 100% | 80% | 100% | 90% | 90% | 90% | 90% | 100% | 100% | 90% | 90% | 90% | 100% | 100% | 90% | 100% |
| O=S(=O)(CCCCl)Oc1ccccc1Oc1ncc(F)cn1 [Example I-5] | 80% | 90% | 100% | 100% | 100% | 80% | 100% | 90% | 100% | 90% | 100% | 100% | 100% | 100% | 100% | 100% | 100% | 100% |  | 90% |
| O=S(=O)(CCCCl)Oc1c(F)cccc1Oc1ncc(Cl)cn1 [Example I-14] | 90% | 90% | 100% | 100% | 100% | 90% | 100% | 100% | 100% | 90% | 100% | 100% | 100% | 100% | 100% | 100% | 100% | 100% | 90% | 100% |
| C=CCCS(=O)(=O)Oc1c(F)cccc1Oc1ncc(Cl)cn1 [Example I-50] | 90% | 100% | 90% | 100% | 100% |  | 100% | 90% | 90% |  | 90% | 100% | 100% |  | 90% | 90% |  | 90% | 90% |  |
| O=S(=O)(CCCCCl)Oc1ccccc1Oc1ncc(Cl)cn1 [Example I-15] | 90% | 100% | 100% | 100% | 100% |  | 80% | 90% | 90% |  | 100% | 100% | 100% | 100% | 100% | 100% | 100% | 100% |  | 100% |
| O=S(=O)(CC1CC(F)(F)C1)Oc1c(F)cccc1Oc1ncc(Cl)cn1 [Example I-53] | 100% | 100% | 100% | 100% | 100% | 100% | 100% | 90% | 90% | 90% | 90% | 100% | 100% | 90% | 90% | 90% | 100% | 100% | 90% | 100% |
| CC(C)CS(=O)(=O)Oc1ccccc1Oc1ncc(Cl)cn1 [Example I-7, [2-(5-Chloropyrimidin-2-yl)oxyphenyl] 2-methylpropane-1-sulfonate] |  | 90% | 90% | 100% | 100% | 80% | 100% |  | 90% |  | 90% | 90% | 100% |  |  |  | 80% | 100% |  | 90% |
| O=S(=O)(CCCC(F)(F)F)Oc1c(F)cccc1Oc1ncc(Br)cn1 [Example I-41] | 100% | 100% | 100% | 100% | 100% | 90% | 100% | 90% | 90% | 90% | 90% | 100% | 100% | 90% | 90% | 90% | 100% | 100% |  | 100% |
| CCCCS(=O)(=O)Oc1ccccc1Oc1ncc(Cl)cn1 [Example I-6] | 80% | 90% | 90% | 90% | 100% | 90% | 100% |  | 100% |  | 90% | 100% | 100% |  | 90% | 90% | 80% | 90% |  | 100% |
| COCCS(=O)(=O)Oc1c(F)cccc1Oc1ncc(Cl)cn1 [Example I-52] |  | 80% |  | 90% | 100% |  | 100% | 90% | 90% |  | 90% | 90% | 100% |  |  |  | 100% | 100% |  | 90% |
| O=S(=O)(CCCC(F)(F)F)Oc1ccccc1Oc1ncc(Cl)cn1 [Example I-10] | 90% | 100% | 100% | 100% | 100% | 90% | 90% |  | 90% | 100% | 100% | 100% | 100% |  |  |  | 90% | 100% |  | 100% |
